pEC50, pIC50: −log10 of the molar value. Like-named read-outs stand apart in the source and are kept apart here.

Assay [1] has as its system TNFα release from human peripheral blood lymphocytes. As to the kind of experiment: Lipopolysaccharide-stimulated TNFα release from human peripheral blood lymphocytes. The conditions noted are these: Lymphocyte; for EC50: Homo sapiens, read-out: PBL/TNFα EC50 (μM); for pEC50: LPS-stimulated TNFα release from human PBL, read-out: PBL/TNFα EC50. It counts as cell-based. As to the method:
The compounds of structural formulae (I) and (II) were tested for an ability to reduce TNFα secretions in human peripheral blood lymphocytes. The ability of a compound to reduce TNFα secretion is related to the EC50 value for the compound (i.e., the effective concentration of the compound capable of inhibiting 50% of the total TNFα).
To assess the ability of a compound to reduce TNFα secretion in human peripheral blood lymphocytes (PBL), the following tests were performed.
Heparinized blood (approximately 30 mL) drawn from human volunteers was mixed 1:1 with Dulbecco's modified phosphate-buffered saline. This mixture was mixed 1:1 with HISTOPAQUE® and centrifuged at 1,500 rpm at room temperature without braking in the swinging bucket of a Beckman model TJ6 centrifuge. Erythrocytes were centrifuged to the bottom of the tubes, and serum remained at the surface of the tubes. A layer containing lymphocytes sedimented between the serum and HISTOPAQUE® layers, and was removed by aspiration to a fresh tube. The cells were quantified and adjusted to […] and a 100 μL aliquot is placed into the wells of a 96 well plate. Test compounds and RPMI media (Gibco/BRL Life Sciences) are added to each of the wells 15 minutes prior to addition of bacterial LPS ([…]). The mixture was allowed to incubate for 20 hours at 37° C. in a humidified chamber. The cells then were separated by centrifuging at 800 rpm for 5 minutes at room temperature. An aliquot of 180 μL of supernatant was transferred to a new plate for determination of TNFα concentration. TNFα protein in the cell supernatant fluids was measured using a commercially available enzyme-linked immunosorbent assay (ELISA) (CYTOSCREEN® Immunoassay Kit from Biosource International).
The cell-based assay provided the following results for various compounds of the present invention. The EC50. values (i.e., effective concentration of the compound capable of inhibiting 50% of the total TNFα) illustrate the ability of the present compounds to inhibit LPS-stimulated TNFα release from human PBL.
The cell-based assay provided the following results for various pyrazole compounds of the present invention. The EC50 values (i.e., effective concentrations of the compound capable of inhibiting 50% of the total TNFα) illustrate the ability of the present compounds to inhibit LPS-stimulated TNFα release from human peripheral blood lymphocytes.

Another assay addresses T1, human recombinant PDE4 (Homo sapiens, UniProt Q07343).
T1 construct: made in house; host or cells: Saccharomyces cerevisiae BJ2-54
As to the kind of experiment: Inhibition of human recombinant PDE4 (charcoal separation PDE assay). In kind it is biochemical. The conditions noted are these: for IC50: PDE4 IC50 (μM). As to the method: The compounds of structural formula (I) were tested for an ability to inhibit PDE4. […] The IC50 value for compounds of structural formula (I) were determined using human recombinant PDE4.
Phosphodiesterase activity of the preparations was determined as follows. […] In this assay, PDE activity converts [32P]cAMP or [32P]cGMP to the corresponding [32P]5′-AMP or [32P]5′-GMP in proportion to the amount of PDE activity present. The [32P]5′-AMP or [32P]5′-GMP then was quantitatively converted to free [32P]phosphate and unlabeled adenosine or guanosine by the action of snake venom 5′-nucleotidase. […] The assay was performed at 30° C. in a 100 μL reaction mixture containing (final concentrations) 40 mM Tris HCl (pH 8.0), 1 μM ZnSO4, 5 mM MgCl2, and 0.1 mg/mL bovine serum albumin (BSA). Alternatively, in assays assessing PDE1-specific activity, incubation mixtures further incorporated the use of 0.1 mM CaCl2 and 10 μg/mL calmodulin. PDE enzyme was present in quantities that yield <30% total hydrolysis of substrate (linear assay conditions). The assay was initiated by addition of substrate (1 mM [32P]cAMP or cGMP), and the mixture was incubated for 12 minutes. Seventy-five (75) μg of Crotalus atrox venom then was added, and the incubation was continued for 3 minutes (15 minutes total). The reaction was stopped by addition of 200 μL of activated charcoal (25 mg/mL suspension in 0.1 M NaH2PO4, pH 4). After centrifugation (750×g for 3 minutes) to sediment the charcoal, a sample of the supernatant was taken for radioactivity determination in a scintillation counter and the PDE activity was calculated.

[2] abbreviates: structure table, read-out: PDE4 IC50.
[3] abbreviates: table with PBL/TNFα, read-out: PDE4 IC50.

T1 sequence (Q07343 whole entry): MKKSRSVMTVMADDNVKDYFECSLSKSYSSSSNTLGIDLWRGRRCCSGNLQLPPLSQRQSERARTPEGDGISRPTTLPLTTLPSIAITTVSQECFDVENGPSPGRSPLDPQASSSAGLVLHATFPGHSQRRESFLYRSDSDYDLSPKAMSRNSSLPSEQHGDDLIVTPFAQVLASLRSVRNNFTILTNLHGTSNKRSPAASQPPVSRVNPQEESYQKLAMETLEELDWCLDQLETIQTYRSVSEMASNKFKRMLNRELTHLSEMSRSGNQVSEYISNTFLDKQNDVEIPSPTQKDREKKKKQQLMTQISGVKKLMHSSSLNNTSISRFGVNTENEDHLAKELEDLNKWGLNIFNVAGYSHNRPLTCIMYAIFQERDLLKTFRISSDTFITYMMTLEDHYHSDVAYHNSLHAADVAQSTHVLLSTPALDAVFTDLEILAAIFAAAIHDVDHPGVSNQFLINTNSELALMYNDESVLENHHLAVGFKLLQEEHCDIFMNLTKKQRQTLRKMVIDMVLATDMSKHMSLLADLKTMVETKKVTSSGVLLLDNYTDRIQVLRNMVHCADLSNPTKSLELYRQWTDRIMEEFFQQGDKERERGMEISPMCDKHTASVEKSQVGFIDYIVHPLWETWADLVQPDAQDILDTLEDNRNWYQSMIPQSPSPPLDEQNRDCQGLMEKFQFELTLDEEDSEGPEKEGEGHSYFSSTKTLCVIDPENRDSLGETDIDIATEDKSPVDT

For orientation: IC50 means the concentration that gives 50% inhibition. As for `CCOC(=O)c1c(C)nn(-c2ccc(NCc3ccccc3O)cc2)c1C` [Example 40], in assay [1], the EC50 turned out to be 6.2 µM. Besides, the IC50 on human recombinant PDE4 (structure table) and on human recombinant PDE4 (table with PBL/TNFα) was 0.92 µM in each case.
A word on the pIC50: it is the negative decadic logarithm of the IC50, by convention in mol/L. Regarding `CCOC(=O)c1cnn(-c2ccc([N+](=O)[O-])cc2)c1C(F)(F)F` [Example 30, 1-(4-Nitrophenyl)-5-trifluoromethyl-1H-pyrazole-4-carboxylic acid ethyl ester], the pIC50 on human recombinant PDE4 (setting [2]) was 4.34.
The same measure, in the same setting: next, `CCOC(=O)c1c(C)nn(-c2ccc(NC(=O)C(C)(C)C)cc2)c1C` [Example 14, 1-[4-(2,2-dimethylpropionylamino)phenyl]-3,5-dimethyl-1H-pyrazole-4-carboxylic acid ethyl ester]: 5.19.
Regarding `Cc1nn(-c2ccc(N)cc2)c(C)c1C(=O)O` [Example 18, 1-(4-aminophenyl)-3,5-dimethyl-1H-pyrazole-4-carboxylic acid], the pIC50 at human recombinant PDE4 (setting [2]) is 3.76.
`CCOC(=O)c1c(C)nn(-c2ccc([N+](=O)[O-])cn2)c1C` [Example 7, 3,5-dimethyl-1-(5-nitropyridin-2-yl)-1H-pyrazole-4-carboxylic acid ethyl ester]: the pIC50 on human recombinant PDE4 (read-out: PDE4 IC50, structure table) was 4.89.
With `Cc1nn(-c2ccccc2)c(C)c1C(=O)Nc1ccccc1` [Example 36, 3,5-Dimethyl-1-phenyl-1H-pyrazole-4-carboxylic acid phenylamide], the pIC50 at human recombinant PDE4 (setting [2]) was 3.85.
`CCOC(=O)c1c(C)nn(-c2ccc(N)cc2)c1C` [Example 11, 3,5-dimethyl-1-(4-aminophenyl)-1H-pyrazole-4-carboxylic acid ethyl ester]: in assay [1], the pEC50 is 6.00. The pIC50 at human recombinant PDE4 (setting [2]) and on human recombinant PDE4 (setting [3]) was 6.52 in each case.
Turning to `CCOC(=O)c1c(C)nn(-c2ccc(NS(=O)(=O)c3ccc(OC)cc3)cc2)c1C` [Example 13, 1-[4-(4-methoxybenzenesulfonylamino)phenyl]-3,5-dimethyl-1H-pyrazole-4-carboxylic acid ethyl ester], the half-maximal inhibitory concentration (IC50) on human recombinant PDE4 (structure table) is 1.88 µM.
For the compound `CCOC(=O)c1c(C)nn(-c2ccccc2[N+](=O)[O-])c1C` [Example 5, 3,5-dimethyl-1-(2-nitrophenyl)-1H-pyrazole-4-carboxylic acid ethyl ester], the pIC50 on human recombinant PDE4 (setting [2]) was 6.19.
In the case of `COC(=O)c1cnn(-c2cc(C(F)(F)F)cc(C)n2)c1C(C)=O` [Example 33, 5-Acetyl-1-(6-methyl-4-trifluoromethylpyridin-2-yl)-1H-pyrazole-4-carboxylic acid methyl ester], the pIC50 on human recombinant PDE4 (setting [2]) is 4.05.
Still for that read-out and setting: the result for `COC(=O)c1cnn(-c2ccccn2)c1C(C)=O` [Example 37, 5-Acetyl-1-pyridin-2-yl-1H-pyrazole-4-carboxylic acid methyl ester] reads 3.74.
As to `CCOC(=O)c1c(C)nn(-c2ncccc2N)c1C` [Example 12, 1-(3-aminopyridin-2-yl)-3,5-dimethyl-1H-pyrazole-4-carboxylic acid ethyl ester], in assay [1], the EC50 turned out to be 2.6 µM. For the same compound, the pIC50 at human recombinant PDE4 (setting [2]) and at human recombinant PDE4 (setting [3]) was 6.03 in each case.
Turning to `Cc1nn(-c2ccccc2)c(C)c1C(=O)Nc1ccncc1` [Example 34, 3,5-Dimethyl-1-phenyl-1H-pyrazole-4-carboxylic acid pyridin-4-ylamide], the negative logarithm of the IC50 (pIC50) on human recombinant PDE4 (setting [2]) is 4.01.
On the same count and under the same terms, the result for `CCOC(=O)c1c(C)nn(-c2ccc(C)cc2)c1C` [Example 4, 3,5-dimethyl-1-p-tolyl-1H-pyrazole-4-carboxylic acid ethyl ester] reads 5.40.
With `CCOC(=O)c1c(C)nn(-c2ccc(N=Cc3ccccc3O)cc2)c1C` [Example 38], the EC50 in assay [1] is 1 µM. Also, the IC50 at human recombinant PDE4 (structure table) and on human recombinant PDE4 (table with PBL/TNFα) was 0.4 µM each time.
`CCOC(=O)c1cnn(-c2ccc(N)cc2)c1C(F)(F)F` [Example 27, 1-(4-aminophenyl)-5-trifluoromethyl-1H-pyrazole-4-carboxylic acid ethyl ester]: on human recombinant PDE4 (setting [2]), the pIC50 was 5.44.
The same measure, in the same setting: next, `CCOC(=O)c1cnn(-c2ncc(C(F)(F)F)cc2Cl)c1C` [Example 31, 1-(3-Chloro-5-trifluoromethylpyridin-2-yl)-5-methyl-1H-pyrazole-4-carboxylic acid ethyl ester]: 4.20; `Cc1nn(-c2ncccc2[N+](=O)[O-])c(C)c1C(=O)O` [Example 16, 3,5-dimethyl-1-(3-nitropyridin-2-yl)-1H-pyrazole-4-carboxylic acid]: 4.32; `Cc1nn(-c2ccccc2)c(C)c1C=O` [Example 28, 3,5-Dimethyl-1-phenyl-1H-pyrazole-4-carboxaldehyde]: 4.74.
Consider `CCOC(=O)c1c(C)nn(-c2ccc([N+](=O)[O-])cn2)c1C` [Example 17, 3,5-dimethyl-1-(5-nitropyridin-2-yl)-1H-pyrazole-4-carboxylic acid ethyl ester], for which, at human recombinant PDE4 (setting [2]), the pIC50 is 4.24.
On the same count and under the same terms, the result for `COC(=O)c1cnn(-c2cc(C(F)(F)F)cc(C)n2)c1C(=O)C=CN(C)C` [Example 29, 5-(3-Dimethylaminoacryloyl)-1-(6-methyl-4-trifluoromethylpyridin-2-yl)-1H-pyrazole-4-carboxylic acid methyl ester] reads 4.43; that for `Cc1ccc(OC(=O)c2c(C)nn(-c3ccccc3)c2C)cc1` [Example 15, 3,5-dimethyl-1-phenyl-1H-pyrazole-4-carboxylic acid p-tolyl ester], 4.44.
Consider `CCOC(=O)c1c(C)nn(-c2cccc(N)c2)c1C` [Example 9, 1-(3-aminophenyl)-3,5-dimethyl-1H-pyrazole-4-carboxylic acid ethyl ester], for which the EC50 in assay [1] worked out at 1.9 µM. Moreover, the results for the pIC50 at human recombinant PDE4 (setting [2]) and at human recombinant PDE4 (setting [3]) were 5.99 and 6.00, respectively.
Take `CCOC(=O)c1cn(-c2ccccn2)nc1C` [Example 26, 3-methyl-1-pyridin-2-yl-1H-pyrazole-4-carboxylic acid ethyl ester]: the pIC50 at human recombinant PDE4 (setting [2]) is 5.44.
Consider `CCOC(=O)c1c(C)nn(C2CCCCC2)c1C` [Example 19, 1-cyclohexyl-3,5-dimethyl-1H-pyrazole-4-carboxylic acid ethyl ester], for which the pEC50 in assay [1] is 6.28. In addition, the pIC50 at human recombinant PDE4 (setting [2]) and at human recombinant PDE4 (setting [3]) was 7.28 each time.
As to `CCOC(=O)c1c(C)nn(-c2ccc(N=Cc3ccc(OC)cc3)cc2)c1C` [Example 39], in assay [1], the pEC50 is 5.89. In addition, the IC50 on human recombinant PDE4 (structure table) and at human recombinant PDE4 (table with PBL/TNFα) was 0.69 µM throughout.
As for `CCOC(=O)c1c(C)nn(-c2ccccc2)c1C` [Example 3, 3,5-dimethyl-1-phenyl-1H-pyrazole-4-carboxylic acid ethyl ester], the EC50 in assay [1] was 1.8 µM. For the same compound, the pIC50 at human recombinant PDE4 (setting [2]) and on human recombinant PDE4 (setting [3]) was 6.51 throughout.
For `CCOC(=O)c1cnn(-c2c(Cl)cc(Cl)cc2Cl)c1COC` [Example 35, 5-Methoxymethyl-1-(2,4,6-trichlorophenyl)-1H-pyrazole-4-carboxylic acid ethyl ester], the negative-log IC50 (pIC50) at human recombinant PDE4 (setting [2]) is 3.88.
Same read-out and setting: next, `CCOC(=O)c1c(C)nn(-c2ccccc2N)c1C` [Example 6, 3,5-dimethyl-1-(2-aminophenyl)-1H-Pyrazole-4-carboxylic acid ethyl ester]: 5.95; `C/C(=N\O)c1cnn(-c2cc(C(F)(F)F)cc(C)n2)c1C` [Example 32, 1-[5-Methyl-1-(6-methyl-4-trifluoromethyl-pyridin-2-yl)-1H-pyrazol-4-yl]-ethanone oxime]: 4.17.

The values above are taken from patent publication US7087634B2, “Cyclic AMP-specific phosphodiesterase inhibitors” (ICOS Corporation, priority 1999, dated 2006).
